According to paper PMC5039532, “Design and Synthesis of Analogues of Marine Natural Product Galaxamide, an N-methylated Cyclic Pentapeptide, as Potential Anti-Tumor Agent in Vitro” (Marine Drugs, 2016):
Values after ≈ are worked out from the molar mass of the structure shown. Where a SMILES comes first, the peptide text is derived from it. [ ]: non-standard residue; d: D form. NMeL = CN[C@@H](CC(C)C)C(=O)O

What was measured:
SMMC-7721 cells [1] = assay: Cell morphological observation, Hoechst33342 staining; format: cell-based, human; conditions: 4, 8 and 16 μg/mL, 48 h, fluorescence microscopy
Method: Exponentially growing SMMC-7721 cells (1 × 10^5 cells/mL) were incubated for 48 h with 4, 8, 16 μg/mL of galaxamide and representative analogues. Apoptotic nuclear morphology was visualized by the Hoechsst33342 staining technique. Cells were fixed with 3.7% of paraformaldehyde for 10 min at room temperature and washed three times with PBS. After fixation, cells were stained using Hoechsst33342 (10 μg/mL) and incubated in the darkness for 10 min. After washing three times with PBS, cells were visualized using fluorescence microscope.

[2] = test system: human hepatocellular carcinoma HepG2; format: cell-based; conditions: 48 h
Method: (§1) Lung cancer A549, drug-resistant lung cancer A549-DPP, human hepatocellular carcinoma HepG2 and hepatocellular carcinoma SMMC-7721 cells obtained from the China cell bank of the Institute of Biochemistry and were cultured in DMEM culture medium (DMEM, Corning, NY, USA) containing 10% fetal bovine serum (FBS, Hyclone, Logan, UT, USA), 1% penicillin-streptomycin and an antifungal agent in a 5% CO2 humidified atmosphere at 37 °C. The culture medium was replaced once in a day. Trypsin digestion method was adopted for cell propagation. Upon reaching 80%–90% confluence, the cells were rinsed twice with PBS. A certain amount of 0.25% trypsin digestion solution was then added and maintained for 3–5 min at 37 °C. Afterward, DMEM culture medium containing 10% fetal bovine serum was added to terminate the digestion. The cells were then blown well to form single cell suspensions.
(§2) The cell viability was determined by measuring the ability of cells to transform MTT (Genview, Houston, TX, USA) to a purple formazan dye. The cells were seeded in 96-well tissue culture plates at 2.5 × 10^3 cells/well for 24 h. The cells were then incubated with galaxamide and its analogues for 48 h. After incubation, 20 μL/well of MTT solution (5 mg/mL phosphate buffered saline) were added and incubated for 5 h. The medium was aspirated and replaced with 100 μL/well of DMSO to dissolve the formazan salt. The color intensity of the formazan solution, which reflects the cell growth condition, was measured at 570 nm using a microplate spectrophotometer (SpectroAma™ 250, Winooski, VT, USA).

SMMC-7721 cells [3] = assay: Cell apoptotic analysis, annexin V/PI staining, flow cytometry; format: cell-based, human; conditions: 4, 8 and 16 μg/mL, 48 h, annexin V/PI double staining
Method: The apoptotic cells were quantified using an Annexin V-FITC (Sigma-Aldrich, St. Louis, MO, USA) cell apoptosis assay kit according to instruction provided with kit. In brief, about 1.5 × 10^5 cells were plated in 6-well plates and treated with galaxamide and representative analogues (4, 8, 16 μg/mL) for 48 h. The cells were resuspended in […] binding buffer. Afterward, […] annexin V-fluorescein isothiocyanate (FITC) was added and then incubated in darkness at room temperature for 10 min. The cells were again resuspended in […] binding buffer and stained with […] PI. The prepared cells were then analyzed using a flow cytometry (Coulter Epics Elite, Miami, FL, USA). The cells in the FITC-positive and PI-negative fraction were regarded as apoptotic cells.

[4] = test system: hepatocellular carcinoma SMMC-7721 cells; format: cell-based, human; conditions: 48 h
Method: as §1, §2

[5] = test system: Lung cancer cell line A549; format: cell-based, human; conditions: 48 h
Method: as §1, §2

[6] = test system: drug-resistant lung cancer cell line A549/DPP; format: cell-based, human; conditions: 48 h
Method: as §1, §2

SMMC-7721 cells [7] = assay: Cell cycle analysis by PI staining and flow cytometry; format: cell-based, human; conditions: 4, 8 and 16 μg/mL, 48 h
Method: SMMC-7721 cells with the density of about 1.5 × 10^5 were incubated with galaxamide and representative analogues (4, 8, 16 μg/mL) for 48 h. Afterwards, collected cells were washed twice with PBS and centrifugation (1000 rpm, 5 min), then fixed using 70% ethanol for 12 h at 4 °C. Ethanol was removed by centrifugation (2000 rpm, 5 min), and the cells were washed twice with PBS. Cells were then resuspended in […] PI and kept at 37 °C for 15 min. The cell cycle was analyzed by flow cytometry measuring the amount of PI-labeled DNA in fixed cells.

Structure (SMILES) | morphological changes (in words) (SMMC-7721 cells [1]) | IC50 Value HepG2 [2] [µg/mL] | induction of apoptosis (in words) (SMMC-7721 cells [3]) | IC50 Value SMMC-7721 [4] [µg/mL] | IC50 Value A549 [5] [µg/mL] | IC50 Value A549-DPP [6] [µg/mL] | cell-cycle arrest (in words) (SMMC-7721 cells [7])
CC(C)C[C@@H]1NC(=O)[C@H](CC(C)C)NC(=O)[C@@H](Cc2ccccc2)NC(=O)[C@H](CC(C)C)N(C)C(=O)[C@@H](CC(C)C)NC1=O [Compound 22, cyclo(D-Phe-Leu-Leu-D-Leu-N-Me-Leu)] | resulted in cell detachment from cell culture plates | 6.41 (≈ 10.4 µM) | induced SMMC-7721 cell apoptosis in dose-dependent manner | 1.44 (≈ 2.35 µM) | 9.4 (≈ 15.3 µM) | 12.22 (≈ 19.9 µM) | arresting the cell cycle in the G0/G1 phase
CC(C)C[C@@H]1NC(=O)[C@H](CC(C)C)N(C)C(=O)[C@H](CC(C)C)NC(=O)[C@H](CC(C)C)N(C)C(=O)[C@H](CC(C)C)NC1=O [Galaxamide, galaxamide] (cyclo(LL[NMeL]L[NMeL])) | resulted in cell detachment from cell culture plates | – | – | – | – | – | arresting the cell cycle in the G0/G1 phase
CC(C)C[C@@H]1NC(=O)[C@H](Cc2ccccc2)NC(=O)[C@@H](CC(C)C)NC(=O)[C@@H](CC(C)C)NC(=O)[C@@H](CC(C)C)N(C)C1=O [Compound 3, cyclo(Phe-Leu-D-N-Me-Leu-D-Leu-D-Leu)] | – | 18.82 (≈ 30.7 µM) | – | 2.77 (≈ 4.51 µM) | 5.17 (≈ 8.42 µM) | 11.41 (≈ 18.6 µM) | –
CC(C)C[C@@H]1NC(=O)[C@@H](Cc2ccccc2)NC(=O)[C@H](CC(C)C)N(C)C(=O)[C@H](CC(C)C)NC(=O)[C@@H](CC(C)C)NC1=O [Compound 23, cyclo(D-Phe-Leu-D-Leu-Leu-N-Me-Leu)] | – | 26.62 (≈ 43.4 µM) | – | 4.32 (≈ 7.04 µM) | 5.85 (≈ 9.53 µM) | 9.13 (≈ 14.9 µM) | –
